Measured values: PubChem BioAssay AID256 (DTP/NCI, 2004)
Where “and” joins values, the source holds several entries; their conditions need not be identical. Equal values may be shown once. Inconclusive results and toxic doses are left out. The calls were made as follows: active = survival T/C of 150% or more; inactive = T/C below 125% in these data.

Test system: CD2F1 mice, L1210 leukemia ip, survival T/C
Assay: NCI In Vivo Anticancer Drug Screen. Data for tumor model L1210 Leukemia (intraperitoneal) in CD2F1 (CDF1) mice
Details: higher = longer survival
How it was run: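 Compound-dosed mice with transplantable tumor versus matched vehicle controls; endpoint ratio T/C reported.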

[1] = endpoint: mean survival time, dose: 50.0 mg/kg/injection, schedule: Q01DX009 (ip), vehicle: saline with Tween-80
[2] = endpoint: mean survival time, dose: 100.0 mg/kg/injection, schedule: Q01DX009 (ip), vehicle: saline with Tween-80
[3] = endpoint: mean survival time, dose: 100.0 mg/kg/injection, schedule: Q04DX003 (ip), vehicle: saline with Tween-80
[4] = endpoint: mean survival time, dose: 200.0 mg/kg/injection, schedule: Q04DX003 (ip), vehicle: saline with Tween-80
[5] = endpoint: mean survival time, dose: 400.0 mg/kg/injection, schedule: Q04DX003 (ip), vehicle: saline with Tween-80
[6] = endpoint: mean survival time, dose: 100.0 mg/kg/injection, schedule: Q01DX001 (ip), vehicle: saline with Tween-80
[7] = endpoint: mean survival time, dose: 200.0 mg/kg/injection, schedule: Q01DX001 (ip), vehicle: saline with Tween-80
[8] = endpoint: mean survival time, dose: 200.0 mg/kg/injection, schedule: Q01DX009 (ip), vehicle: saline with Tween-80
[9] = endpoint: mean survival time, dose: 400.0 mg/kg/injection, schedule: Q01DX001 (ip), vehicle: saline with Tween-80
[10] = endpoint: mean survival time, dose: 50.0 mg/kg/injection, schedule: Q01DX009 (ip), vehicle: saline

Measured: T/C

C1CCC(C2CCCC[N-]2)[N-]C1.C1CCC(C2CCCC[N-]2)[N-]C1.O=N[O-].O=N[O-].[Ru+4] (configuration not stated)
inactive: endpoint: mean survival time, dose: 3.13 mg/kg/injection, schedule: Q04DX003 (ip), vehicle: distilled water + Tween-80 90 % of control | endpoint: mean survival time, dose: 6.25 mg/kg/injection, schedule: Q04DX003 (ip), vehicle: distilled water + Tween-80 95 % of control | endpoint: mean survival time, dose: 12.5 mg/kg/injection, schedule: Q04DX003 (ip), vehicle: distilled water + Tween-80 95 % of control | endpoint: mean survival time, dose: 25.0 mg/kg/injection, schedule: Q04DX003 (ip), vehicle: distilled water + Tween-80 93 % of control | endpoint: mean survival time, dose: 50.0 mg/kg/injection, schedule: Q04DX003 (ip), vehicle: distilled water + Tween-80 92 % of control | endpoint: mean survival time, dose: 100.0 mg/kg/injection, schedule: Q04DX003 (ip), vehicle: distilled water + Tween-80 90 % of control | endpoint: mean survival time, dose: 200.0 mg/kg/injection, schedule: Q04DX003 (ip), vehicle: distilled water + Tween-80 90 % of control

Nc1c(Br)cc2c(c1Br)Cc1cc(Cl)ccc1-2
inactive: endpoint: mean survival time, dose: 25.0 mg/kg/injection, schedule: Q01DX009 (ip), vehicle: saline with Tween-80 107 % of control | endpoint: mean survival time, dose: 25.0 mg/kg/injection, schedule: Q04DX003 (ip), vehicle: saline with Tween-80 111 % of control | [1] 103 % of control | endpoint: mean survival time, dose: 50.0 mg/kg/injection, schedule: Q04DX003 (ip), vehicle: saline with Tween-80 103 % of control | [2] 102 % of control | [3] 105 % of control | [4] 100 % of control | [5] 86 % of control

NC(C(=O)O)c1ccc(CBr)cc1 (configuration not stated)
inactive: endpoint: median survival time, dose: 3.12 mg/kg/injection, schedule: Q01DX009 (ip), vehicle: saline with Tween-80 108 % of control | endpoint: median survival time, dose: 6.25 mg/kg/injection, schedule: Q01DX009 (ip), vehicle: saline with Tween-80 116 % of control and 100 % of control and 112 % of control | endpoint: median survival time, dose: 12.5 mg/kg/injection, schedule: Q01DX009 (ip), vehicle: saline with Tween-80 113 % of control and 121 % of control and 105 % of control | endpoint: median survival time, dose: 25.0 mg/kg/injection, schedule: Q01DX009 (ip), vehicle: saline with Tween-80 116 % of control and 103 % of control | endpoint: median survival time, dose: 50.0 mg/kg/injection, schedule: Q01DX009 (ip), vehicle: saline with Tween-80 121 % of control and 108 % of control

CN1C(C(=O)O)CCC1C(=O)O (configuration not stated)
inactive: endpoint: mean survival time, dose: 100.0 mg/kg/injection, schedule: Q04DX003 (ip), vehicle: saline 96 % of control | endpoint: mean survival time, dose: 200.0 mg/kg/injection, schedule: Q04DX003 (ip), vehicle: saline 98 % of control

O=C(Nc1cccc2ccccc12)OCCCBr
inactive: endpoint: mean survival time, dose: 3.13 mg/kg/injection, schedule: Q01DX009 (ip), vehicle: saline with Tween-80 97 % of control | endpoint: mean survival time, dose: 6.25 mg/kg/injection, schedule: Q01DX009 (ip), vehicle: saline with Tween-80 103 % of control | endpoint: mean survival time, dose: 12.5 mg/kg/injection, schedule: Q01DX009 (ip), vehicle: saline with Tween-80 94 % of control and 101 % of control | [1] 86 % of control

Nc1nc(=O)n(C2OC(CO)C(O)C2F)cc1I (configuration not stated)
inactive: endpoint: median survival time, dose: 12.5 mg/kg/injection, schedule: Q01DX005 (ip), vehicle: saline 103 % of control | endpoint: median survival time, dose: 25.0 mg/kg/injection, schedule: Q01DX005 (ip), vehicle: saline 102 % of control | endpoint: median survival time, dose: 50.0 mg/kg/injection, schedule: Q01DX005 (ip), vehicle: saline 104 % of control | endpoint: median survival time, dose: 100.0 mg/kg/injection, schedule: Q01DX005 (ip), vehicle: saline 97 % of control | endpoint: median survival time, dose: 200.0 mg/kg/injection, schedule: Q01DX005 (ip), vehicle: saline 103 % of control

CC(C)(C)C1CCC(OC(=O)C(=O)O)CC1 (configuration not stated)
inactive: [6] 100 % of control | [2] 104 % of control | [7] 97 % of control | [8] 87 % of control | [9] 95 % of control

COc1ccc(/C(C#N)=C2\OC(=O)c3ccccc32)cc1OC
inactive: [10] 93 % of control | endpoint: mean survival time, dose: 100.0 mg/kg/injection, schedule: Q01DX009 (ip), vehicle: saline 94 % of control | endpoint: mean survival time, dose: 200.0 mg/kg/injection, schedule: Q01DX009 (ip), vehicle: saline 94 % of control | endpoint: mean survival time, dose: 400.0 mg/kg/injection, schedule: Q01DX009 (ip), vehicle: saline 94 % of control

Cc1c2ccccc2c(CN(C)CC(=O)NCC(=O)NCC(=O)O)c2ccccc12
inactive: [6] 103 % of control | [7] 92 % of control | [9] 92 % of control

O=C(O)c1c2c(nc3ccccc13)Cc1ccccc1-2
inactive: endpoint: mean survival time, dose: 12.5 mg/kg/injection, schedule: Q01DX009 (ip), vehicle: water 104 % of control and 109 % of control | endpoint: mean survival time, dose: 25.0 mg/kg/injection, schedule: Q01DX009 (ip), vehicle: water 103 % of control and 108 % of control | [1] 96 % of control | endpoint: mean survival time, dose: 50.0 mg/kg/injection, schedule: Q01DX009 (ip), vehicle: water 105 % of control and 110 % of control | [2] 104 % of control | endpoint: mean survival time, dose: 100.0 mg/kg/injection, schedule: Q01DX009 (ip), vehicle: water 100 % of control and 112 % of control | [3] 98 % of control | [8] 101 % of control | endpoint: mean survival time, dose: 200.0 mg/kg/injection, schedule: Q01DX009 (ip), vehicle: water 114 % of control | [4] 104 % of control

COc1ccc(C(Sc2ccccc2)c2ccc(OC)cc2)cc1
inactive: [2] 95 % of control | [3] 95 % of control | [8] 90 % of control | [4] 95 % of control | endpoint: mean survival time, dose: 400.0 mg/kg/injection, schedule: Q01DX009 (ip), vehicle: saline with Tween-80 86 % of control | [5] 96 % of control

C#CC(C)OCC1CNC(=S)O1 (configuration not stated)
inactive: endpoint: mean survival time, dose: 25.0 mg/kg/injection, schedule: Q01DX009 (ip), vehicle: Klucel (hydroxypropylcellulose) (HPC) 96 % of control | endpoint: mean survival time, dose: 50.0 mg/kg/injection, schedule: Q01DX009 (ip), vehicle: Klucel (hydroxypropylcellulose) (HPC) 92 % of control | endpoint: mean survival time, dose: 100.0 mg/kg/injection, schedule: Q01DX009 (ip), vehicle: Klucel (hydroxypropylcellulose) (HPC) 94 % of control | endpoint: mean survival time, dose: 200.0 mg/kg/injection, schedule: Q01DX009 (ip), vehicle: Klucel (hydroxypropylcellulose) (HPC) 97 % of control | endpoint: mean survival time, dose: 400.0 mg/kg/injection, schedule: Q01DX009 (ip), vehicle: Klucel (hydroxypropylcellulose) (HPC) 91 % of control

Nc1nc(N)nc(-c2ccccn2)n1
inactive: [10] 112 % of control

CCNC(=O)OC(C)C
inactive: endpoint: mean survival time, dose: 100.0 mg/kg/injection, schedule: Q04DX002 (ip), vehicle: saline with Tween-80 90 % of control | endpoint: mean survival time, dose: 200.0 mg/kg/injection, schedule: Q04DX002 (ip), vehicle: saline with Tween-80 102 % of control | endpoint: mean survival time, dose: 400.0 mg/kg/injection, schedule: Q04DX002 (ip), vehicle: saline with Tween-80 94 % of control

O=S(=O)(O)O
inactive: endpoint: mean survival time, dose: 100.0 mg/kg/injection, schedule: Q01DX009 (ip), vehicle: saline sonified 100 % of control | [3] 96 % of control | endpoint: mean survival time, dose: 200.0 mg/kg/injection, schedule: Q01DX009 (ip), vehicle: saline sonified 97 % of control | endpoint: mean survival time, dose: 400.0 mg/kg/injection, schedule: Q01DX009 (ip), vehicle: saline sonified 97 % of control
